In brackets after ≈: the same amount, converted by molar mass. Read-outs that look alike come from different tables or passages of the source.
Experiments:
[1] = Solid state stability of physical forms at 40° C./75% RH by pXRD; format: physicochemical; conditions: 40° C./75% RH open, 7 days
Method: Physical forms crystallized from various methods of crystallization were exposed to 40° C./75% RH for 7 days in open condition to understand the physical stability of the new physical forms in the presence of heat and humidity and also to know if there is any form conversion in the stable forms of Esylate and oxalate salts of FT-1518.

[2] = Hepatic clearance, rat; format: in vitro ADME
[3] = Hepatic clearance, dog; format: in vitro ADME; conditions: dogs
[4] = Hygroscopicity (dynamic vapor sorption); format: physicochemical
Method: Sorption isotherms were obtained using a VTI-SA+-moisture sorption analyzer from TA instruments. The sample temperature was maintained at 25° C. by the instrument controls. The humidity was controlled by mixing the streams of dry and wet nitrogen, with a total flow rate of 200 mL/minute. The weight change of the sample as a function of % RH was constantly monitored by microbalance.
Typically, 5 to 20 mg of the sample was weighed under ambient conditions in a tared mesh stainless steel basket. The sample was loaded and unloaded at 40% RH and 25° C. A moisture sorption isotherm was performed as outlined. The standard isotherm was performed at 25° C. at 10% RH intervals over a 0 to 90% RH range. Sample was dried at 40° C. from ambient room conditions to 0% RH.

[5] = Hepatic clearance, mouse; format: in vitro ADME
[6] = Hepatic clearance, human; format: in vitro ADME
[7] = Qualitative (kinetic/visual) solubility in solvents/media; format: physicochemical
Method: 2 mg quantity of API was taken in glass vial and small portions of solvent was added with vortexing till the clear solution is obtained (at room temperature or heating up to 50-60° C.).
Weighed quantity of API was taken in glass vial and small portions of solvent was added with vortexing till the clear solution is obtained (at room temperature or heating up to 50-60° C.).

[8] = test system: prostate cancer (PC-3); assay: In vitro assay, PC-3; format: cell-based; conditions: prostate cancer (PC-3) line
Method: (§1) All in vitro experiments like protein binding, microsomal stability, cell cytotoxicity were performed as per study protocols of respective experiments.

[9] = test system: Caco-2; assay: Caco-2 permeability
[10] = test system: MDA-MB-231 (breast cancer); assay: Anti-proliferative effect, MDA-MB-231; format: cell-based
Method: as §1

[11] = Plasma protein binding, human; format: in vitro ADME; conditions: human, plasma, 10 μM (n = 4); read-out: % Bound, Human Plasma (converted)
Method: as §1

[12] = Plasma protein binding, mouse; format: in vitro ADME; conditions: mouse, plasma, 10 μM (n = 4); read-out: % Bound, Mouse plasma (converted)
Method: as §1

[13] = Caco-2 permeability; conditions: human, Caco-2
[14] = test system: Caco-2
[15] = Qualitative solubility of FT1518 in aqueous media containing counterions; format: physicochemical
Text: Solubility of FT-1518 was checked in various counter ion solutions before performing salt screening to obtain an estimate of feasibility of salt formation in the respective counter ions.

[16] = sample from cooling crystallization in ethanol
[17] = sample from slurry transformation in ethyl acetate
[18] = sample from solvent evaporation in acetonitrile
[19] = sample from solvent evaporation in ethanol
[20] = normal room temperature / ambient conditions

CCC(CC)n1cnc2c(-c3cnc(N)cn3)nc(N3CC4CCC(C3)O4)nc21 [FT-1518-Oxalate]
solid state stability (pXRD form) [1, 16]: Same as initial salt
solid state stability (pXRD form) ([1]; sample from cooling crystallization in tetrahydrofuran): Same as initial salt
solid state stability (pXRD form) ([1]; sample from slurry transformation in ethyl acetate: water (9:1)): remained same
solid state stability (pXRD form) [1, 17]: Same as initial
solid state stability (pXRD form) ([1]; sample from slurry transformation in hexane): Same as initial
solid state stability (pXRD form) ([1]; sample from solvent evaporation in acetone): Same as initial salt form
solid state stability (pXRD form) [1, 18]: Same as initial salt
solid state stability (pXRD form) [1, 19]: Partial conversion of new
solid state stability (pXRD form) ([1]; sample from solvent evaporation in tetrahydrofuran): Major conversion of new
hepatic clearance in terms of liver blood flow [2]: moderate
hepatic clearance in terms of liver blood flow [3]: low
hygroscopicity [4, 20]: non-hygroscopic
hepatic clearance in terms of liver blood flow [5]: moderate
hepatic clearance in terms of liver blood flow [6]: moderate
Solubility ([7]; Dimethyl sulphoxide): >100000 µg/mL
Solubility ([7]; N-methyl pyrrolidone): >100000 µg/mL
Solubility ([7]; dichloromethane): <1000 µg/mL
Solubility ([7]; ethyl acetate): <1000 µg/mL
Solubility ([7]; n-hexane): <1000 µg/mL
Solubility ([7]; toluene): <1000 µg/mL
IC50 [8]: 183 µM
permeability in Caco-2 assay [9]: ✓ FT1518 base, FT1518-Esylate and FT1518-Oxalate showed high permeability in Caco-2 assay. Efflux ratio of <2 indicates compounds that the compounds may not be substrates of P-gp or BCRP efflux transporters
Apparent permeability (Papp) A to B ([9]; 10 μM (n = 3), Caco-2): 23.207 ± 1.801 ×10⁻⁶ cm/s
Apparent permeability (Papp) B to A ([9]; 10 μM (n = 3), Caco-2): 29.203 ± 1.482 ×10⁻⁶ cm/s
IC50 [10]: > 10 µM

CCC(CC)n1cnc2c(-c3cnc(N)cn3)nc(N3CC4CCC(C3)O4)nc21 [FT-1518-Esylate]
solid state stability (pXRD form) [1, 16]: remained the same
solid state stability (pXRD form) ([1]; sample from slurry transformation in THF: toluene (1:1)): Same as initial salt
solid state stability (pXRD form) ([1]; sample from slurry transformation in THF): Same as initial salt
solid state stability (pXRD form) [1, 17]: 40 °C slurry converted
solid state stability (pXRD form) ([1]; sample from slurry transformation in toluene): Same as initial salt
solid state stability (pXRD form) ([1]; sample from solvent evaporation in THF:water (9:1)): Same as initial salt
solid state stability (pXRD form) [1, 18]: Same as initial salt
solid state stability (pXRD form) [1, 19]: formed Same as initial salt
solid state stability (pXRD form) ([1]; sample from solvent evaporation in methanol): Same as initial salt
hepatic clearance in terms of liver blood flow [2]: low
hepatic clearance in terms of liver blood flow [3]: low
fraction unbound at 10 μM [11]: 0.0298
hygroscopicity [4, 20]: non-hygroscopic
fraction unbound at 10 μM [12]: 0.0854
hepatic clearance in terms of liver blood flow [5]: high
hepatic clearance in terms of liver blood flow [6]: moderate
Solubility ([7]; N-methyl pyrrolidone, organic solvent or mixture, thermodynamic from solid, N-methyl pyrrolidone, read-out: Solubility): > 100000 µg/mL
Solubility ([7]; Tetrahydrofuran): <1000 µg/mL
Solubility ([7]; acetone, organic solvent or mixture, thermodynamic from solid, Acetone, read-out: Solubility): < 1000 µg/mL
Solubility ([7]; acetonitrile, organic solvent or mixture, thermodynamic from solid, Acetonitrile, read-out: Solubility): > 100000 µg/mL
Solubility ([7]; dimethyl sulphoxide, organic solvent or mixture, thermodynamic from solid, Dimethyl sulphoxide, read-out: Solubility): > 100000 µg/mL
Solubility ([7]; ethyl acetate, organic solvent or mixture, thermodynamic from solid, Ethyl acetate, read-out: Solubility): < 1000 µg/mL
Solubility ([7]; isopropyl alcohol (2-propanol), organic solvent or mixture, thermodynamic from solid, Isopropyl alcohol (2-propanol), read-out: Solubility): 10000 to 25000 µg/mL (≈ 25.3 to 63.4 mM)
Solubility ([7]; n-hexane, organic solvent or mixture, thermodynamic from solid, n-hexane, read-out: Solubility): < 1000 µg/mL
Solubility ([7]; toluene, organic solvent or mixture, thermodynamic from solid, Toluene, read-out: Solubility): < 1000 µg/mL
permeability in Caco-2 assay [9]: ✓ FT1518 base, FT1518-Esylate and FT1518-Oxalate showed high permeability in Caco-2 assay. Efflux ratio of <2 indicates compounds that the compounds may not be substrates of P-gp or BCRP efflux transporters
efflux ratio at 10 μM [13]: 1.8
Papp A→B at 10 μM ([13]; Caco-2, Apparent permeability (Papp) A to B, 10 μM (n = 3)): 21.6 ± 0.887 ×10⁻⁶ cm/s
Papp B→A at 10 μM ([13]; Caco-2, Apparent permeability (Papp) B to A, 10 μM (n = 3)): 38.3 ± 0.426 ×10⁻⁶ cm/s
IC50 ([10]; Homo sapiens): > 10 µM

CCC(CC)n1cnc2c(-c3cnc(N)cn3)nc(N3CC4CCC(C3)O4)nc21 [FT-1518 base]
Apparent permeability (Papp) A to B [14]: 21.571 ± 1.767 ×10⁻⁶ cm/s
Apparent permeability (Papp) B to A [14]: 30.94 ± 0.428 ×10⁻⁶ cm/s
permeability in Caco-2 assay [14]: ✓ FT1518 base, FT1518-Esylate and FT1518-Oxalate showed high permeability in Caco-2 assay. Efflux ratio of <2 indicates compounds that the compounds may not be substrates of P-gp or BCRP efflux transporters
Solubility ([15]; 0.04N phthalic acid): <1000 µg/mL
Solubility ([15]; 0.1N H2SO4): >100000 µg/mL
Solubility ([15]; 0.1N adipic acid): <1000 µg/mL
hygroscopicity [4, 20]: non-hygroscopic
hygroscopicity ([4]; sorption cycle 0 to 95% RH at 25° C.): slightly hygroscopic. As there was no
moisture uptake ([4]; up to 70% RH, 25° C.): There was about <2% moisture uptake up
solubility (descriptive term) ([7]; 0.11N HCl): soluble
Solubility ([7]; 1,4-dioxane): >100000 µg/mL
solubility (descriptive term) ([7]; 1,4-dioxane): freely soluble
Solubility ([7]; Dimethyl sulphoxide): >100000 µg/mL
solubility (descriptive term) ([7]; Dimethyl sulphoxide): freely soluble
Solubility ([7]; N,N-dimethyl acetamide): >100000 µg/mL
solubility (descriptive term) ([7]; N,N-dimethyl acetamide): freely soluble
Solubility ([7]; N-methyl pyrrolidone): >100000 µg/mL
solubility (descriptive term) ([7]; N-methyl pyrrolidone): freely soluble
Solubility ([7]; Purified water): <1000 µg/mL
Solubility ([7]; Tetrahydrofuran): >100000 µg/mL
solubility (descriptive term) ([7]; Tetrahydrofuran): freely soluble
solubility (descriptive term) ([7]; acetone): freely soluble
solubility (descriptive term) ([7]; acetonitrile): soluble
Solubility ([7]; dichloromethane): >100000 µg/mL
solubility (descriptive term) ([7]; dichloromethane): freely soluble
Solubility ([7]; diethyl ether): <1000 µg/mL
solubility (descriptive term) ([7]; diethyl ether): insoluble
Solubility ([7]; ethanol): >100000 µg/mL
solubility (descriptive term) ([7]; ethanol): freely soluble
solubility (descriptive term) ([7]; ethyl acetate): soluble
solubility (descriptive term) ([7]; isopropyl acetate): soluble
solubility (descriptive term) ([7]; isopropyl alcohol): freely soluble
Solubility ([7]; methanol): >100000 µg/mL
solubility (descriptive term) ([7]; methanol): freely soluble
solubility (descriptive term) ([7]; methyl tertiary butyl ether): slightly soluble
Solubility ([7]; n-heptane): <1000 µg/mL
solubility (descriptive term) ([7]; n-heptane): insoluble
Solubility ([7]; n-hexane): <1000 µg/mL
solubility (descriptive term) ([7]; n-hexane): insoluble
solubility (descriptive term) ([7]; purified water, listed as FT1518): practically insoluble
solubility (descriptive term) ([7]; purified water, listed as FT-1518): insoluble
solubility (descriptive term) ([7]; toluene): soluble
IC50 [10]: > 30 µM

Reference: US11820782B2, “Salt forms of amino pyrazine purine based selective kinase inhibitor” (FTG BIO LLC, priority 2018, dated 2023)
